Like-named read-outs stand apart in the source and are kept apart here.
Assays:
Test in all cases: HotSpot kinase profiling
Type in all cases: biochemical
DYRK1/DYRK1A = molecular target: T1, DYRK1/DYRK1A (Homo sapiens, UniProt Q13627)
T1 construct: purchased Reaction Biology Corp

EPHA3 = molecular target: T2, EPHA3 (Homo sapiens, UniProt P29320)
T2 construct: purchased Reaction Biology Corp
T2 sequence (P29320 21-983): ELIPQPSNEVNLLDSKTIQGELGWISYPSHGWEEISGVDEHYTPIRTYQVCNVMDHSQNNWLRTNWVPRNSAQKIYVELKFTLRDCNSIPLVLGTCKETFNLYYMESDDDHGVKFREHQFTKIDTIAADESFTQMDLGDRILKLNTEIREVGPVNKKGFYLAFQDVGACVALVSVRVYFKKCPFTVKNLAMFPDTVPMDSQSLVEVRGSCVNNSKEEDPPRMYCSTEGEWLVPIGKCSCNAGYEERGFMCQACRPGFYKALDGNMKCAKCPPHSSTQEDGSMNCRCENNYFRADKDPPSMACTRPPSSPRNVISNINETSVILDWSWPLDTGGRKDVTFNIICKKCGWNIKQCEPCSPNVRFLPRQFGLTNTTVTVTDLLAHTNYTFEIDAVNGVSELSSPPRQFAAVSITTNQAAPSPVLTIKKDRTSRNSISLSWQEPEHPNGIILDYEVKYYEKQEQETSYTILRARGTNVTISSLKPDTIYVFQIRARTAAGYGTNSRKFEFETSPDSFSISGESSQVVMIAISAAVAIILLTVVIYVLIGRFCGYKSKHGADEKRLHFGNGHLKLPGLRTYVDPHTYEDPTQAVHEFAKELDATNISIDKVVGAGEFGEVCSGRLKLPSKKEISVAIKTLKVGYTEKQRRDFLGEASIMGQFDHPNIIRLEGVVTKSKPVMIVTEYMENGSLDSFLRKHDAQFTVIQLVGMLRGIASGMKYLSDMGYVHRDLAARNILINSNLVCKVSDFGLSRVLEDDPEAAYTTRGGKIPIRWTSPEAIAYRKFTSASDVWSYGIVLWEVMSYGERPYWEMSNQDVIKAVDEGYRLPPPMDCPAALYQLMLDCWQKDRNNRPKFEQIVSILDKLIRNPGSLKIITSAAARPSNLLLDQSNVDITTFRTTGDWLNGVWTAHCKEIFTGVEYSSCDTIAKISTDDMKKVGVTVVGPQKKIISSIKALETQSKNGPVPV
Outline: (§1)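 Percent inhibition, averaged when run more than once and referenced to a DMSO negative control, came from a radioactive filter-binding readout on P81 paper. Reactions of kinase with freshly made substrate and cofactors ran for 2 h at room temperature.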

Haspin = molecular target: T3, Haspin (Homo sapiens, UniProt Q8TF76)
T3 construct: purchased Reaction Biology Corp
T3 sequence (Q8TF76 1-798): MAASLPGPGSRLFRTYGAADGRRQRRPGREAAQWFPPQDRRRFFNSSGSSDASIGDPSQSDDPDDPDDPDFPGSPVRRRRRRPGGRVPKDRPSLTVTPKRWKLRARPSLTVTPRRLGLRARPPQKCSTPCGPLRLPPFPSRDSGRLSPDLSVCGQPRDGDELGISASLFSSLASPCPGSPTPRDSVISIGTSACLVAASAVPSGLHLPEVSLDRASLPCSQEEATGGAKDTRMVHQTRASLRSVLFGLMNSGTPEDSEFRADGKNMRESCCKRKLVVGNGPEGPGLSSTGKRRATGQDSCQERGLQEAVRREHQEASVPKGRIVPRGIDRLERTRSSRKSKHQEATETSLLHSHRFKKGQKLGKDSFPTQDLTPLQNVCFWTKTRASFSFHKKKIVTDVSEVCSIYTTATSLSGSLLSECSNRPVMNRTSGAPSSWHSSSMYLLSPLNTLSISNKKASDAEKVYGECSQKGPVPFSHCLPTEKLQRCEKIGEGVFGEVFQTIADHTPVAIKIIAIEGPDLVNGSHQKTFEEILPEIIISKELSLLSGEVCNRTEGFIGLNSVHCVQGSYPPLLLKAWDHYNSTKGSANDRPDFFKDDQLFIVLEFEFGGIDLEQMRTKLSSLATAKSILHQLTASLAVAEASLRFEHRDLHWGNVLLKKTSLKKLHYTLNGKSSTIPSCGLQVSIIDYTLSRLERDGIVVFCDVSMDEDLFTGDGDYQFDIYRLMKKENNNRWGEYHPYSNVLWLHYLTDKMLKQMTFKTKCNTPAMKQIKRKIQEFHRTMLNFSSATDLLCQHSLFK
Outline: as §1

c-MET = molecular target: T4, c-MET (Homo sapiens, UniProt P08581)
T4 construct: purchased Reaction Biology Corp
Outline: as §1

[1] = read-out: % Enzyme Activity (relative to DMSO controls) Run 1
[2] = read-out: % Enzyme Activity (relative to DMSO controls) Run 2

T4 sequence (P08581 25-1390): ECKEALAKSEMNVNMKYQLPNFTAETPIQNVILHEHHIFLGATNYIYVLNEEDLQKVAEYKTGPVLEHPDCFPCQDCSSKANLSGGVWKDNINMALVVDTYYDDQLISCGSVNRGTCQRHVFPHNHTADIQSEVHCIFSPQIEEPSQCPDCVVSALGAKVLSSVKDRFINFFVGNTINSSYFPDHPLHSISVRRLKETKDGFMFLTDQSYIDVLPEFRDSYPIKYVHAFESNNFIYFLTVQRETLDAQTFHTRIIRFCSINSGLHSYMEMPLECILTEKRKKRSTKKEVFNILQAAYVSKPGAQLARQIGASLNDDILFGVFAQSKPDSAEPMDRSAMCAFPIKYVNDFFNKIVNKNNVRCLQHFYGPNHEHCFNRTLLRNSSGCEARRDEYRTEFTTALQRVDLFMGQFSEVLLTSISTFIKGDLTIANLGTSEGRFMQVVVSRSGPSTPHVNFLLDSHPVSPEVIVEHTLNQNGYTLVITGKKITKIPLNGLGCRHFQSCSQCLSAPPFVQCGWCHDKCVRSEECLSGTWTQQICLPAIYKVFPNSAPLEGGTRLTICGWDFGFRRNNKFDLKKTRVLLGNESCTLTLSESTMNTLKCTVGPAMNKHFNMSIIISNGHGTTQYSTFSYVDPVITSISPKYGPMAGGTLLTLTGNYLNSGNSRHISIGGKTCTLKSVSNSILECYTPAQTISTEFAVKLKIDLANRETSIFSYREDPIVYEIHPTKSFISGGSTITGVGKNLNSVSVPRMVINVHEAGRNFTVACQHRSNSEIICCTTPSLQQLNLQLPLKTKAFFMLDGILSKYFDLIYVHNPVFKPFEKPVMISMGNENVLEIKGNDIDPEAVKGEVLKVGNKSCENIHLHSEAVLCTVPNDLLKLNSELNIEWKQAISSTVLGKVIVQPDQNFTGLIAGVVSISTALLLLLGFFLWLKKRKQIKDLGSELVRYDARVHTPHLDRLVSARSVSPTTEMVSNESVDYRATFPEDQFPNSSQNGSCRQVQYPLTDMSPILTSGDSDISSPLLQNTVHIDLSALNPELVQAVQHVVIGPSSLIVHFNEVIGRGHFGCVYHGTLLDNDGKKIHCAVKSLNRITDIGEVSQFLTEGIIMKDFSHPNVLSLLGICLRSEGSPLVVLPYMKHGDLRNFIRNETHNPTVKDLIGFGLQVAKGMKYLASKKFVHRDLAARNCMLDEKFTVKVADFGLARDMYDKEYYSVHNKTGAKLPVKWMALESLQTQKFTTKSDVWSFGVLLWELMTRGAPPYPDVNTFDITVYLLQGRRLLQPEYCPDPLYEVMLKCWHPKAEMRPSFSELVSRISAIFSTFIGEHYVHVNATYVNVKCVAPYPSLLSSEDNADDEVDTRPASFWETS

Question: What does the source list for C=CC(=O)Nc1cccc(Nc2nc(Nc3ccc(OCCOC)c(F)c3)ncc2F)c1 [Compound 2]?
Answer: inhibition at 3 µM (DYRK1/DYRK1A): 12%; remaining activity at 3 µM (DYRK1/DYRK1A; [1]): 87.7%; remaining activity at 3 µM (DYRK1/DYRK1A; [2]): 88.4%; inhibition at 3 µM (EPHA3): 1.81%; remaining activity at 3 µM (EPHA3; [1]): 96.2%; remaining activity at 3 µM (EPHA3; [2]): 100%; inhibition at 3 µM (Haspin): 9.77%; remaining activity at 3 µM (Haspin; [1]): 90.6%; remaining activity at 3 µM (Haspin; [2]): 89.9%; inhibition at 3 µM (c-MET): -1.49%; remaining activity at 3 µM (c-MET; [1]): 103%; remaining activity at 3 µM (c-MET; [2]): 100%

Reference: US9492471B2, “Methods of treating a disease or disorder associated with Bruton'S Tyrosine Kinase” (Celgene Avilomics Research, Inc., priority 2013, dated 2016)
